Laboratory results reported in patent US12029744B2, “Bicyclic heteroaryl derivatives as ectonucleotide pyrophosphatase phosphodiesterase 1 inhibitors” (Riboscience LLC, priority 2019, dated 2024).
Structures can show the parent of a compound that is named as a salt.

What follows are compounds tested against T1, ENPP1 (Homo sapiens, UniProt P22413) (assay: Measurement of pNP-TMP hydrolysis by ENPP1 (enzyme activity assay, absorbance at 405 nm)). Details: substrate pNP-TMP 500 μM, KM 232 μM; Ki from IC50 by Cheng-Prusoff; read-out: Ki (pNP-TMP).
T1 sequence (P22413 1-925): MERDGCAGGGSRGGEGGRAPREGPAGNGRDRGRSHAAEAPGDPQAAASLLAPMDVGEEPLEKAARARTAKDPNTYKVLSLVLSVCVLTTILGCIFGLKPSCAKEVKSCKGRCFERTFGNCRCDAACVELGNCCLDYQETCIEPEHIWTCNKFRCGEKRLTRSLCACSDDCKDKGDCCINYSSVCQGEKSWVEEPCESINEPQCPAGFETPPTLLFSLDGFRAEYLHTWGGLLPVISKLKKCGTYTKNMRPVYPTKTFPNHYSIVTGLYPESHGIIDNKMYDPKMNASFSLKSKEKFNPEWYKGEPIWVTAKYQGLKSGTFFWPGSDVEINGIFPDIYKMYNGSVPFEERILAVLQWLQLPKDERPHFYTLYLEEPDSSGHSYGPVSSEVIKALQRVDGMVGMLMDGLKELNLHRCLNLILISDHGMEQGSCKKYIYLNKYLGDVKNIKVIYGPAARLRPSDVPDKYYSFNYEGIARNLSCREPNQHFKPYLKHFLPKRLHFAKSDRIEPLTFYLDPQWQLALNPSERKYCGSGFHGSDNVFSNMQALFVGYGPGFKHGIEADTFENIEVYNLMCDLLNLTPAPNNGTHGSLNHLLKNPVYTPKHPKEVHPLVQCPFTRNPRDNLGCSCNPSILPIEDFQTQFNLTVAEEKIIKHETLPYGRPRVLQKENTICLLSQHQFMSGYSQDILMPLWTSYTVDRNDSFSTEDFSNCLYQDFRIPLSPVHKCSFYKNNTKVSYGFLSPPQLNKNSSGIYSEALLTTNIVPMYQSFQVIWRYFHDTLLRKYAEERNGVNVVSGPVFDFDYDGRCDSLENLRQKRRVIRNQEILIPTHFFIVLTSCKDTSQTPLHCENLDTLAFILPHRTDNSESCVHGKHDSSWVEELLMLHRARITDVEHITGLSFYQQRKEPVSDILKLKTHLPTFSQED
Type: biochemical
Description: Measurement of pNP-TMP Hydrolysis by ENPP1
p-Nitrophenyl thymidine 5′-monophosphate (pNP-TMP) is a synthesized substrate for ENPP1. The ENPP1 enzyme activity assay with pNP-TMP substrate was conducted as follows:
Incubation of ENPP1 with compounds was set at 25° C. for 10 min. […] For each compound dilution, wells with assay buffer (50 mM Tris-HCl, pH8.8, 250 mM NaCl, 0.1 mg/ml BSA, 1% DMSO) only but no ENPP1 were included as controls for subtraction of test compound derived absorbance at 405 nm.
Absorbance at 405 nm was recorded immediately in kinetic mode by PerkinElmer 2300 Enspire multimode plate reader.
For each inhibitor, the specific ENPP1 activity was calculated using the following equation: ENPP1 activity (pmol/min/μg)=Adjusted Vmax (OD405 nm/min)×conversion factor (pmol/OD405 nm)/amount of enzyme (μg)
Adjusted Vmax=V0×(Km+(S))/(S).
V0=(OD405 nm with ENPP1−OD405 nm ENPP1 blank)/minutes. OD405 nm was plotted, with blank subtracted, against time (minutes), the initial linear rate is V0. […]
The slope is the conversion factor. The percent ENPP1 activity for each sample was calculated using the following equation: % enzyme activity=sample enzyme activity/MAX Activity×100%.
To determine the IC50 for each compound, compound concentration values and percent enzyme activity values were inserted into GraphPad Prism (GraphPad Prism version 7.0 for Windows, GraphPad Software, La Jolla California USA, www.graphpad.com), and Prism's Transform analysis was used to convert the x-axis values (compound concentration) to logarithms. A sigmoidal variable slope nonlinear regression analysis was performed using the following equation: Y=Bottom+(Top−Bottom)/(1+10^[…])).
With `O=c1[nH]cnc2c1c(F)cn2Cc1ccc(P(=O)(O)O)cc1` [Compound 134, 4-((5-fluoro-4-oxo-3H-pyrrolo[2,3-d]pyrimidin-7-yl)methyl)phenylphosphonic acid] the Ki was < 100 nM. With `O=P(O)(O)c1ccc(Cn2cnc3nc(O)ccc32)cc1` [Compound 150, 4-((5-hydroxyimidazo[4,5-b]pyridin-1-yl)methyl)phenylphosphonic acid] the Ki was < 100 nM. In the case of `N#Cc1ccc2c(ncn2Cc2ccc(B(O)O)cc2)n1` [Compound 70, 4-((5-cyanoimidazo[4,5-b]pyridin-1-yl)methyl)phenylboronic acid], the Ki is reported as < 10 nM. `CCc1nc2ccnc(O)c2n1Cc1ccc(B(O)O)cc1` [Compound 74, 4-((2-ethyl-4-hydroxyimidazo[4,5-c]pyridin-3-yl)methyl)phenylboronic acid] was tested, and the Ki was < 1000 nM. For `NC(=O)c1nccc2c1ncn2Cc1ccc(B(O)O)cc1` [Compound 96, 4-((4-carbamoylimidazo[4,5-c]pyridin-1-yl)methyl)phenylboronic acid], the Ki was < 10 nM. In the case of `Cc1cc2nc(C(N)=O)ccc2n1Cc1ccc(B(O)O)cc1` [Compound 77, 4-((5-carbamoyl-2-methylpyrrolo[3,2-b]pyridin-1-yl)methyl) phenylboronic acid], the Ki is reported as < 10 nM. For `O=P(O)(O)c1ccc(Cn2ccc3c(O)nccc32)cc1` [Compound 56, (4-((4-hydroxy-1H-pyrrolo[3,2-c]pyridin-1-yl)methyl)phenyl)phosphonic acid], the Ki was < 100 nM. For `CCc1cc2c(O)nccc2n1Cc1ccc(B(O)O)cc1` [Compound 106, 4-((2-ethyl-4-hydroxypyrrolo[3,2-c]pyridin-1-yl)methyl)phenylboronic acid], the Ki was < 10 nM. `NC(=O)c1ccc2c(ncn2Cc2ccc(B(O)O)cc2)n1` [Compound 59, 4-((5-carbamoylimidazo[4,5-b]pyridin-1-yl)methyl)phenylboronic acid] was tested, and the Ki was < 10 nM. With `N#Cc1ccc2c(c1)ncn2Cc1ccc(B(O)O)cc1` [Compound 15, 4-((5-cyano-1,3-benzodiazol-1-yl)methyl)phenylboronic acid] the Ki was < 10 nM. `COc1ccc2c(ncn2Cc2ccc(B(O)O)cc2)n1` [Compound 125, 4-((5-methoxyimidazo[4,5-b]pyridin-1-yl)methyl)phenylboronic acid] was tested, and the Ki was < 10 nM. In the case of `NC(=O)c1ccc2c(c1)c(Cl)cn2Cc1ccc(P(=O)(O)O)cc1` [Compound 143, 4-((5-carbamoyl-3-chloroindol-1-yl)methyl)phenylphosphonic acid], the Ki is reported as < 1000 nM. `CC(C)c1nc2cc(C(N)=O)ccc2n1Cc1ccc(B(O)O)cc1` [Compound 37, 4-((5-carbamoyl-2-isopropyl-1,3-benzodiazol-1-yl)methyl)phenylboronic acid] was tested, and the Ki was < 10 nM. In the case of `NC(=O)c1ccc2c(c1)ncn2Cc1ccc(B(O)O)cc1` [Compound 17, 4-((5-carbamoyl-1,3-benzodiazol-1-yl)methyl)phenylboronic acid trifluoroacetic acid salt], the Ki is reported as < 10 nM. `Cc1nc2cc(C(N)=O)ccc2n1Cc1ccc(B(O)O)cc1` [Compound 36, (4-((5-carbamoyl-2-methyl-1H-benzo[d]imidazol-1-yl)methyl)phenyl)boronic acid] was tested, and the Ki was < 10 nM. With `N#Cc1ccc2c(c1)ncn2Cc1ccc(P(=O)(O)O)cc1` [Compound 24, (4-((5-cyano-1H-benzo[d]imidazol-1-yl)methyl)phenyl)phosphonic acid] the Ki was < 1000 nM. In the case of `OB(O)c1ccc(Cn2ccc3c(O)nccc32)cc1` [Compound 9, (4-((4-hydroxy-1H-pyrrolo[3,2-c]pyridin-1-yl)methyl)phenyl)boronic acid], the Ki is reported as < 10 nM. For `CC(C)c1nc2nc(C(N)=O)ccc2n1Cc1ccc(B(O)O)cc1` [Compound 146, 4-((5-carbamoyl-2-isopropylimidazo[4,5-b]pyridin-1-yl)methyl)phenylboronic acid], the Ki was < 10 nM. `NC(=O)c1ccc2c(ccn2Cc2ccc(P(=O)(O)O)cc2)c1` [Compound 142, 4-((5-carbamoylindol-1-yl)methyl)phenylphosphonic acid] was tested, and the Ki was < 1000 nM.
